US11013219B2, “Metabolism-based drug screening platform in bioengineered zebrafish” (Path Therapeutics, Inc., priority 2014, dated 2021)

Tests used:
[1] = system: kcna1 zebrafish morphants; test: Behavioral hyperactivity (locomotion) assay, kcna1 morphants; format: in vivo; conditions: larvae 5 days post fertilization; 10 minutes preincubation, assayed 20 minutes
Experimental: This Example utilizes the drug screening assay disclosed herein using morpholino-injected embryos to transiently knockdown genes of interest. Here, we compare three “epileptic” models for phenotypes in the behavioral assay: pharmacological-induction model (PTZ) and two genetic knockdown models (kcna1 and scn1a morphants).
Larvae were treated with morpholinos to kcna1 and scn1a as described above.
Zebrafish larvae (5 days post fertilization) were seeded into 96 well microliter plates containing vehicle solution and monitored for 20 minutes for hyperactivity. Morphants and WT zebrafish were exposed to drug for 10 minutes preincubation and then assayed for changes in hyperactivity for 20 minutes (Zebralab box). Drugs that decreased hyperactivity behavior by 40% in morphants were identified as “positive hits.”
These positive hits were then verified by conducting a dose-response relationship using hyperactivity as readout.

[2] = system: PTZ-induced hyperactive zebrafish; test: Seahorse bioenergetic analysis, PTZ-treated larvae; format: in vivo; conditions: Seahorse Bioanalyzer
Excerpt: One exemplary protocol for measuring oxygen consumption rates (OCR) using Extracellular Flux Analyzer (Seahorse Bioscience, Billerica Mass.) is described below. First, sensor cartridges are hydrated in XF Calibrant Solution in 24-well cell culture microplates overnight at 28.5 C. Prior to experiment, injection ports are filled with appropriate treatments and loaded into XH24 instrument. Staged zebrafish embryos (3 days post fertilization used here) are individually placed in 20 of the 24 wells (4 wells serve as controls) on the islet microplate filled with E3 buffer and islet plate capture screens are placed on top to keep living zebrafish from moving during experiment. Plates are loaded into the instrument and six measurement cycles were taken to establish basal rates, which were then followed by treatment injections and 18 additional measurement cycles. OCRs were calculated at cycles five and six and then averaged to create the basal respiration. […]
Next, all positive hits were assayed for improve bioenergetics using Seahorse bioanalyzer (Seahorse, Inc). […] Complete mitochondrial profile was assessed for each individual larvae. […]
FIG. 4 provides workflow and results of bioenergetic analyses in a hyperactive zebrafish. […] Basal, maximal, non-mitochondrial, and mitochondrial cellular respiration were measured.

kcna1 morphant zebrafish = test: Seahorse bioenergetic analysis, kcna1 morphants; format: in vivo; conditions: Seahorse Bioanalyzer; for effect on elevated basal respiration in kcna1 morphant larvae: 24-well plate
Excerpt: One exemplary protocol for measuring oxygen consumption rates (OCR) using Extracellular Flux Analyzer (Seahorse Bioscience, Billerica Mass.) is described below. First, sensor cartridges are hydrated in XF Calibrant Solution in 24-well cell culture microplates overnight at 28.5 C. Prior to experiment, injection ports are filled with appropriate treatments and loaded into XH24 instrument. Staged zebrafish embryos (3 days post fertilization used here) are individually placed in 20 of the 24 wells (4 wells serve as controls) on the islet microplate filled with E3 buffer and islet plate capture screens are placed on top to keep living zebrafish from moving during experiment. Plates are loaded into the instrument and six measurement cycles were taken to establish basal rates, which were then followed by treatment injections and 18 additional measurement cycles. OCRs were calculated at cycles five and six and then averaged to create the basal respiration. FCCP treatment was used to measure maximum OCR and oligomycin was used to measure minimum OCR.
(§1) Next, all positive hits were assayed for improve bioenergetics using Seahorse bioanalyzer (Seahorse, Inc). Briefly, morphant zebrafish were seeded into 24-well Islet Flux plates (Seahorse) and incubated with compound or vehicle for 10 minutes prior to analysis. Complete mitochondrial profile was assessed for each individual larvae. Drugs that improved bioenergetics by 40% were considered candidate drugs.
FIG. 4 provides workflow and results of bioenergetic analyses in a hyperactive zebrafish. […] The plates were loaded into XFe24 Seahorse Bioanalyzer. Basal, maximal, non-mitochondrial, and mitochondrial cellular respiration were measured.

kcna1 mutants = test: Seahorse basal respiration, kcna1 genetic mutant larvae; format: in vivo, zebrafish; conditions: larvae with increased basal respiration washed with PBS and treated
Experimental: This example confirms that the results of drug screens using zebrafish morphants are the same in zebrafish bearing corresponding germline mutations. kcna1^+/− zebrafish were generated as described in Example 1. Heterozygous kcna1^+/− F1s were incrossed and the offspring examined in a behavioral monitoring chamber (Zebralab). We assume ¾ of the progeny are WT or heterozygotes and ¼ are mutants.
Next, a similar experiment was conducted to confirm that kcna1 mutants display a similar phenotype for mitochondrial function (e.g., increased mitochondrial function). Larvae were seeded into 24-well plates and assayed in the Seahorse machine for altered bioenergetics as discussed above. […] Increased basal respiration levels in approximately 25% of the embryos were also detected, as would be expected for a homozygous recessive mutation. […] Genotype was subsequently confirmed by qPCR (FIG. 9D).

scn1a morphants [3] = test: Seahorse basal respiration, scn1a morphants; format: in vivo; conditions: scn1a-MO zebrafish
Experimental: as §1
(§2) Morpholinos directed to scn1a (epilepsy), park2 (neurodegenerative disease), idh1 (brain tumors (astrocytoma/oligodendrogliomas), cdkn2b (oligodendroglioma), h3f3a (oligodendroglioma), snf5 (smarcbla in zebrafish; Atypical Teratoid/Rhabdoid)), and shank3 (Autism Spectrum Disorder) were created and zebrafish larvae exposed as detailed in Example 3.

shank3 morphants = test: Seahorse basal respiration, shank3 morphants (ASD and schizophrenia model); format: in vivo, zebrafish; conditions: shank3-MO
Experimental: as §1, §2

kcna1 mutant zebrafish = test: EEG / extracellular field recordings on live zebrafish larvae; format: in vivo; conditions: kcna1 mutants plus vorinostat (10 μM)
Experimental: First, EEG recordings on live zebrafish were conducted. Briefly, acute seizure-like activity is measured in WT and mutant zebrafish larvae (5 dpf). Extracellular field recordings were obtained from the optic tectum of zebrafish larvae exposed first to vehicle, then washed out and then exposed to candidate drugs. Recordings are collected over 20 minutes and any decrease in small-amplitude “interictal”-like activity and/or large-amplitude “ictal”-like activity is quantified.

Kv1.1 null mice = test: Video EEG seizure recording in Kv1.1 rodent model; format: in vivo; conditions: three Kv1.1−/− mice; 20 mg/kg, twice a day, three consecutive days (PND 46-48) vs no treatment (PND 43-45); Two-way ANOVA, F=27.7, p<0.01
Experimental: Second, candidate drugs that decrease interictal-and/or ictal-like activity in mutant zebrafish lines are then validated in rodent models. Two rodent lines that contain coding deletions in the mammalian orthologs to the zebrafish mutants were used. Candidate drugs were injected intracranially and a decrease in seizure behaviors are monitored using video and […].
Briefly, mice were anesthetized with 3% isofluorane for 2 minutes. Eye glue was applied to the mouse, and anesthesia […] to 2% isofluorane. A “toe pinch” was administered to check anesthetic effect. The surgical area was then shaved while still connected to anesthesia. The anesthesia was increased to 2.5% isofluorane and the anesthetic cone placed over the nose. […]
Vorinostat (Drug #90) treatment reduces seizure occurrence in Kv1.1 null mice. Shown is a representative example of an electrographic seizure recorded from a Kv1.1−/−mouse. Three sets of epidural electroencephalogram (EEG) electrodes simultaneously recorded the signals across the rostral (top trace), medial (middle), and caudal (bottom trace) dorsal aspect of the neocortex. Bar graph of the mean number of seizures per day recorded from three Kv1.1−/−mice. Mice were recorded 24 hours per day for 3 consecutive days (No treatment, PND 43-45) and then received vorinostat injections (20 mg/kg, twice a day) for the next three consecutive days (PND 46-48).

kcna1 morphants = test: Drug-discovery platform (locomotor screen, then Seahorse), kcna1 morphant genetic model; format: in vivo, zebrafish; conditions: blinded study
Experimental: (§3) 10 mM stock solutions of drugs in DMSO were stored at −80° C. and on the day of assay were diluted in E3 medium to a final concentration of 20 μM. For behavioral assays and Seahorse bioenergetics, 20 μM final concentration was used. Adult wild-type TL zebrafish were raised at the Kurrasch Aquatic Research Laboratory at the University of Calgary under standard conditions (28° C., 14 h light/10 h dark cycle) on a recirculating water system.
(§4) Embryos were obtained by natural spawning from mating pairs, screened for viability and for kcna1 and scn1a morpholino models, embryos were injected with either the kcna1- or scn1a-targeting morpholino at the one cell stage. The embryos were sorted for uptake of the morpholino four hours post-injection and seeded to 96 well plates, wrapped in aluminum foil (i.e., raised in the dark), maintained in a non-CO2 incubator at 28.5° C. until 5 dpf.
(§5) On the day of assay, for the kcna1 and scn1a morpholino models, fish were habituated for 20 minutes under 100% light treated with 20 μm of drugs for 20 minutes, and then assayed for locomotor activity in dark for 20 minutes in the zebrabox (Viewpoint Lifesciences, Lyon, Fr). Larval locomotor activity was analyzed using Zebralab V3 software (Viewpoint Lifesciences, Lyon, Fr). For the PTZ model, at 5 dpf, fish were treated with 10 mM PTZ for 10 minutes and then with 20 μM of drugs for 20 minutes under ambient light, and then assayed for locomotor activity under 100% light for 20 minutes in the zebrabox (Viewpoint Lifesciences, Lyon, Fr). Larval locomotor activity was analyzed using Zebralab V3 software (Viewpoint Lifesciences, Lyon, France).
(§6) For the Seahorse bioenergetics measurements, microinjected kcna1 or scn1a morphants or WT zebrafish were maintained in 96 well plates as previously described. XF24 extracellular flux assay plates (Seahorse Bioscience; Massachusetts), were hydrated overnight with XF Calibrant (pH 7.4). […]

scn1a morphants [4] = test: Drug-discovery platform (locomotor screen, then Seahorse), scn1a morphant genetic model; format: in vivo, zebrafish; conditions: blinded study
Experimental: as §3, §4, §5, §6

smarcbla morphants = test: Seahorse basal respiration, smarcbla morphants (AT/RT model); format: in vivo, zebrafish; conditions: smarcbla-MO
Experimental: as §1, with “larvae.” for “larvae. Drugs that improved bioenergetics by 40% were considered candidate drugs.”
as §2

park2 morphants = test: Seahorse basal respiration, park2 morphants (Parkinson's Disease model); format: in vivo, zebrafish; conditions: park2-MO
Experimental: as §1, §2

cdkn2b morphants = test: Seahorse basal respiration, cdkn2b morphants (glioblastoma model); format: in vivo, zebrafish; conditions: cdkn2b-MO
Experimental: as §1, §2

CCCC(CCC)C(=O)O [Valproic acid]
effect on hyperactivity of kcna1 morphants [1]: no effect
events via which elevated basal respiration was blocked, PTZ treated larvae [2]: non-mitochondrial-mediated events
effect on elevated basal respiration in PTZ treated larvae ([2]; 24-well plate): blocked
events via which increased respiration was blocked, kcna1 morphants (kcna1 morphant zebrafish): mitochondrial-mediated events
effect on elevated basal respiration in kcna1 morphant larvae (kcna1 morphant zebrafish): blocked
effect on increased basal respiration in kcna1 mutant larvae (kcna1 mutants): decreased
effect on increased basal respiration in scn1a morphants (scn1a morphants [3]): reduce basal respiration to WT levels

Cc1nc2n(c(=O)c1CCN1CCC(c3noc4cc(F)ccc34)CC1)CCCC2 [resperidon]
effect on increased basal respiration in shank3 morphants (shank3 morphants): Neither resperidon nor aripiprazole were effective

O=C(CCCCCCC(=O)Nc1ccccc1)NO [vorinostat]
events via which increased respiration was blocked, kcna1 morphants (kcna1 morphant zebrafish): mitochondrial-mediated events
effect on elevated basal respiration in kcna1 morphant larvae (kcna1 morphant zebrafish): blocked
effect on seizure-like activity (EEG traces) (kcna1 mutant zebrafish): blocks
number of seizures per day (video EEG) (Kv1.1 null mice): significantly reduced
effect on increased basal respiration in kcna1 mutant larvae (kcna1 mutants): decreased

CC(=O)N1N=C(c2ccc(N)cc2)c2cc3c(cc2C[C@H]1C)OCO3 [Talampanel]
uncovered by the screening platform in genetic model (kcna1 morphants) (kcna1 morphants): would not have uncovered
uncovered by the screening platform in genetic model (scn1a morphants) (scn1a morphants [4]): would not have uncovered

O=P1(N(CCCl)CCCl)NCCCO1 (stereo not shown) [cyclophosphamide]
effect on increased basal respiration in smarcbla morphants (smarcbla morphants): no effect

CC(C)C[C@H]1C(=O)N2CCC[C@H]2[C@]2(O)O[C@](NC(=O)[C@@H]3C=C4c5cccc6[nH]c(Br)c(c56)C[C@H]4N(C)C3)(C(C)C)C(=O)N12 [bromocriptine]
effect on increased basal respiration in park2 morphants (park2 morphants): no effect

O=C1CCc2ccc(OCCCCN3CCN(c4cccc(Cl)c4Cl)CC3)cc2N1 [aripiprazole]
effect on increased basal respiration in shank3 morphants (shank3 morphants): Neither resperidon nor aripiprazole were effective

CC(Cc1ccccc1)(NC(=O)CN)c1ccccc1 (stereo not shown) [Remacemide]
uncovered by the screening platform in genetic model (kcna1 morphants) (kcna1 morphants): would not have uncovered
uncovered by the screening platform in genetic model (scn1a morphants) (scn1a morphants [4]): would not have uncovered

C[C@H](NCc1ccc(OCc2cccc(F)c2)cc1)C(N)=O [Safinamide]
uncovered by the screening platform in genetic model (kcna1 morphants) (kcna1 morphants): would not have uncovered
uncovered by the screening platform in genetic model (scn1a morphants) (scn1a morphants [4]): would not have uncovered

N.N.[Cl][Pt][Cl] [cisplatin]
effect on increased basal respiration in cdkn2b morphants (cdkn2b morphants): reverses this increased bioenergetics to WT levels
effect on increased basal respiration in smarcbla morphants (smarcbla morphants): reverses this increased bioenergetics to WT levels

N[C@@H](Cc1ccc(O)c(O)c1)C(=O)O [L-DOPA]
effect on increased basal respiration in park2 morphants (park2 morphants): reverses this increased bioenergetics to WT levels
